ChEMBL document CHEMBL6083204, “Synthesis of a celastrol derivative as a cancer stem cell inhibitor through regulation of the STAT3 pathway for treatment of ovarian cancer” (RSC Med Chem, 2024)
The source made the active and inactive calls. The calls are words filed in the database; no cut-off is given here.

Assays:
SK-OV-3 [1] = assay: Antitumor activity against human SK-OV-3 cells xenografted in BALB/c mouse assessed as reduction in tumor weight at 2 mg/kg,ip administrated for 21 consecutive days; assay type: functional, organism-based
A2780 [2] = assay: Induction of apoptosis in human A2780 cells assessed as viable cells at 0.2 uM incubated for 24 hrs by Annexin V-FITC/7-AAD staining based flow cytometry (reference value: 95 %); assay type: functional; conditions: read-out: Activity
SK-OV-3 [3] = assay: Induction of cell cycle arrest in human SK-OV-3 cells assessed as accumulation of cells at S phase at 0.8 uM incubated for 24 hrs by BrdU staining based flow cytometry (reference value: 33.6 %); assay type: functional
A2780 [4] = assay: Induction of cell cycle arrest in human A2780 cells assessed as reduction of CDK2 expression at 0.4 uM incubated for 24 hrs by flow cytometry (reference value: 92.5 %); assay type: functional; set-up: scale not given: the % may be the effect or the level left
[5] = target: Tyrosine-protein kinase JAK1 (Homo sapiens) (UniProt P23458); assay: Inhibition of JAK1 in human SK-OV-3 cells assessed as downregulation of JAK1 expression at 0.1 to 0.4 uM incubated for 24 hrs by Western blotting analysis; assay type: cell-based; conditions: dose 0.1-0.4 µM
SK-OV-3 [6] = assay: Induction of apoptosis in human SK-OV-3 cells assessed as increase in caspase-8 activity at 0.2 uM incubated for 24 hrs by flow cytometry (reference value: 2.5 %); assay type: functional
A2780 [7] = assay: Induction of cell cycle arrest in human A2780 cells assessed as accumulation of cells at G0/G1 phase at 0.4 uM incubated for 24 hrs by BrdU staining based flow cytometry (reference value: 42.4 %); assay type: functional
SK-OV-3 [8] = assay: Antitumor activity against human SK-OV-3 cells xenografted in BALB/c mouse assessed as reduction in number of tumor cells at 2 to 5 mg/kg,ip administrated for 21 consecutive days by hematoxylin and eosin staining based assay; assay type: functional, organism-based; conditions: dose 2-5 mg/kg
Mitochondrial membrane = assay: Induction of mitochondrial membrane potential loss in human A2780 cells at 0.2 uM incubated for 24 hrs by JC-1 staining based flow cytometry (reference value: 81 %)
SK-OV-3 [9] = assay: Antitumor activity against human SK-OV-3 cells xenografted in BALB/c mouse assessed as appearance of shrunken nucleus in tumor tissue at 2 to 5 mg/kg,ip administrated for 21 consecutive days by hematoxylin and eosin staining based assay; assay type: functional, organism-based; conditions: dose 2-5 mg/kg
[10] = target: Signal transducer and activator of transcription 3 (Homo sapiens) (UniProt P40763); assay: Inhibition of STAT3 in human A2780 cells assessed as downregulation of cytoplasmic STAT3 phosphorylation at Tyr705 residue at 0.2 uM incubated for 24 hrs by Hoechst33342 staining based immunofluorescence assay; assay type: cell-based
[11] = target: Signal transducer and activator of transcription 3 (Homo sapiens) (UniProt P40763); assay: Inhibition of STAT3 in human A2780 cells assessed as downregulation of cytoplasmic STAT3 phosphorylation at Ser727 residue at 0.2 uM incubated for 24 hrs by Hoechst33342 staining based immunofluorescence assay; assay type: cell-based
A2780 [12] = assay: Antiproliferative activity against human A2780 cells assessed as decrease in ALDH positive cells at 0.2 uM incubated for 24 hrs by ALDEFLUOR staining based flow cytometry (reference value: 32.5 %); assay type: functional; set-up: scale not given: the % may be the effect or the level left
SK-OV-3 [13] = assay: Inhibition of cell invasion in human SK-OV-3 cells incubated for 24 hrs by crystal violet staining based transwell assay; assay type: functional
SK-OV-3 [14] = assay: Induction of apoptosis in human SK-OV-3 cells assessed as necrotic cells at 0.8 uM incubated for 24 hrs by Annexin V-FITC/7-AAD staining based flow cytometry (reference value: 0.6 %); assay type: functional
SK-OV-3 [15] = assay: Antiproliferative activity against human SK-OV-3 cells assessed as decrease in CD44 positive CD24 negative cells expression at 0.2 uM incubated for 24 hrs by FITC staining based flow cytometry (reference value: 85.6 %); assay type: functional; set-up: scale not given: the % may be the effect or the level left
SK-OV-3 [16] = assay: Induction of cell cycle arrest in human SK-OV-3 cells assessed as reduction of CDK4 expression at 0.8 uM incubated for 24 hrs by flow cytometry (reference value: 66.8 %); assay type: functional; set-up: scale not given: the % may be the effect or the level left
A2780 [17] = assay: Induction of cell cycle arrest in human A2780 cells assessed as reduction of Cyclin D1 expression at 0.8 uM incubated for 24 hrs by flow cytometry (reference value: 92.5 %); assay type: functional; set-up: scale not given: the % may be the effect or the level left
A2780 [18] = assay: Inhibition of cell invasion in human A2780 cells incubated for 24 hrs by crystal violet staining based transwell assay; assay type: functional
[19] = Toxicity in BALB/c mouse xenografted with human SK-OV-3 cells assessed as pathological change in heart at 2 to 5 mg/kg,ip administrated for 21 consecutive days by hematoxylin and eosin staining based assay; assay type: organism-based; conditions: in vivo, dose 2-5 mg/kg
SK-OV-3 [20] = assay: Induction of apoptosis in human SK-OV-3 cells assessed as viable cells at 0.4 uM incubated for 24 hrs by Annexin V-FITC/7-AAD staining based flow cytometry (reference value: 94.6 %); assay type: functional; conditions: read-out: Activity
A2780 [21] = assay: Induction of cell cycle arrest in human A2780 cells assessed as reduction of CDK2 expression at 0.8 uM incubated for 24 hrs by flow cytometry (reference value: 92.5 %); assay type: functional; set-up: scale not given: the % may be the effect or the level left
A2780 [22] = assay: Induction of cell cycle arrest in human A2780 cells assessed as accumulation of cells at G0/G1 phase at 0.2 uM incubated for 24 hrs by BrdU staining based flow cytometry (reference value: 42.4 %); assay type: functional
SK-OV-3 [23] = assay: Inhibition of cell migration in human SK-OV-3 cells assessed as reduction in number of migrated cells at 0.1 to 0.4 uM incubated for 24 hrs by crystal violet staining based transwell assay; assay type: functional; conditions: dose 0.1-0.4 µM
SK-OV-3 [24] = assay: Induction of cell cycle arrest in human SK-OV-3 cells assessed as accumulation of cells at G0/G1 phase at 0.2 uM incubated for 24 hrs by BrdU staining based flow cytometry (reference value: 59.8 %); assay type: functional
SK-OV-3 [25] = assay: Antitumor activity against human SK-OV-3 cells xenografted in BALB/c mouse assessed as appearance of loosely arranged cells in tumor tissue at 2 to 5 mg/kg,ip administrated for 21 consecutive days by hematoxylin and eosin staining based assay; assay type: functional, organism-based; conditions: dose 2-5 mg/kg
[26] = target: Signal transducer and activator of transcription 3 (Homo sapiens) (UniProt P40763); assay: Inhibition of STAT3 in human SK-OV-3 cells assessed as downregulation of cytoplasmic STAT3 expression at 0.2 uM incubated for 24 hrs by Hoechst33342 staining based immunofluorescence assay; assay type: cell-based
SK-OV-3 [27] = assay: Inhibition of colony formation in human SK-OV-3 cells assessed as reduction in colony number incubated for 10 days by crystal violet staining based analysis; assay type: functional, cell-based; conditions: time 10.0 day
SK-OV-3 [28] = assay: Induction of apoptosis in human SK-OV-3 cells assessed as viable cells at 0.2 uM incubated for 24 hrs by Annexin V-FITC/7-AAD staining based flow cytometry (reference value: 94.6 %); assay type: functional; conditions: read-out: Activity
A2780 [29] = assay: Inhibition of colony formation in human A2780 cells assessed as reduction in colony size incubated for 10 days by crystal violet staining based analysis; assay type: functional, cell-based; conditions: time 10.0 day
SK-OV-3 [30] = assay: Inhibition of cell migration in human SK-OV-3 cells assessed as downregulation of FAK expression at 0.1 to 0.4 uM incubated for 24 hrs by Western blotting analysis; assay type: functional, cell-based; conditions: dose 0.1-0.4 µM
A2780 [31] = assay: Induction of apoptosis in human A2780 cells assessed as early apoptotic cells at 0.8 uM incubated for 24 hrs by Annexin V-FITC/7-AAD staining based flow cytometry (reference value: 1.9 %); assay type: functional

Signal transducer and activator of transcription 3 (Homo sapiens), sequence (P40763 whole entry): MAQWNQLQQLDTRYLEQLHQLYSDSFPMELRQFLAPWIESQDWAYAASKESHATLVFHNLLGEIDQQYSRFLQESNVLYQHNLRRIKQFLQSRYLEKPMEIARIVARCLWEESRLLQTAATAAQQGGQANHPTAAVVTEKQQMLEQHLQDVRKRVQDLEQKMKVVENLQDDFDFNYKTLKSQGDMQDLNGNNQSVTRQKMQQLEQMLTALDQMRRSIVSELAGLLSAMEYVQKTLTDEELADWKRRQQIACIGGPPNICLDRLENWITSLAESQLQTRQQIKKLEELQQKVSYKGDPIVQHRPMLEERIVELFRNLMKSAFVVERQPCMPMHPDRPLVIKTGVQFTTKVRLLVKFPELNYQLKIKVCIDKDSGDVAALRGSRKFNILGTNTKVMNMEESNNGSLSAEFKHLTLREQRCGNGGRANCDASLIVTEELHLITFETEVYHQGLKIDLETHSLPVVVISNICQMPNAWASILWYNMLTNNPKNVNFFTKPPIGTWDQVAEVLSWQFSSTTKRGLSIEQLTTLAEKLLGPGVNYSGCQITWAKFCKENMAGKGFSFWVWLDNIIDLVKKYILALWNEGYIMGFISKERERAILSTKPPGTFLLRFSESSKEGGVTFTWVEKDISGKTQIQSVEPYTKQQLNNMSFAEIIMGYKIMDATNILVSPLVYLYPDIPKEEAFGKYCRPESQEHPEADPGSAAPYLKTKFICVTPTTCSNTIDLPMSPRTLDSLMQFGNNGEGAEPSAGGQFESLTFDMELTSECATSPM
Tyrosine-protein kinase JAK1 (Homo sapiens), sequence (P23458 whole entry): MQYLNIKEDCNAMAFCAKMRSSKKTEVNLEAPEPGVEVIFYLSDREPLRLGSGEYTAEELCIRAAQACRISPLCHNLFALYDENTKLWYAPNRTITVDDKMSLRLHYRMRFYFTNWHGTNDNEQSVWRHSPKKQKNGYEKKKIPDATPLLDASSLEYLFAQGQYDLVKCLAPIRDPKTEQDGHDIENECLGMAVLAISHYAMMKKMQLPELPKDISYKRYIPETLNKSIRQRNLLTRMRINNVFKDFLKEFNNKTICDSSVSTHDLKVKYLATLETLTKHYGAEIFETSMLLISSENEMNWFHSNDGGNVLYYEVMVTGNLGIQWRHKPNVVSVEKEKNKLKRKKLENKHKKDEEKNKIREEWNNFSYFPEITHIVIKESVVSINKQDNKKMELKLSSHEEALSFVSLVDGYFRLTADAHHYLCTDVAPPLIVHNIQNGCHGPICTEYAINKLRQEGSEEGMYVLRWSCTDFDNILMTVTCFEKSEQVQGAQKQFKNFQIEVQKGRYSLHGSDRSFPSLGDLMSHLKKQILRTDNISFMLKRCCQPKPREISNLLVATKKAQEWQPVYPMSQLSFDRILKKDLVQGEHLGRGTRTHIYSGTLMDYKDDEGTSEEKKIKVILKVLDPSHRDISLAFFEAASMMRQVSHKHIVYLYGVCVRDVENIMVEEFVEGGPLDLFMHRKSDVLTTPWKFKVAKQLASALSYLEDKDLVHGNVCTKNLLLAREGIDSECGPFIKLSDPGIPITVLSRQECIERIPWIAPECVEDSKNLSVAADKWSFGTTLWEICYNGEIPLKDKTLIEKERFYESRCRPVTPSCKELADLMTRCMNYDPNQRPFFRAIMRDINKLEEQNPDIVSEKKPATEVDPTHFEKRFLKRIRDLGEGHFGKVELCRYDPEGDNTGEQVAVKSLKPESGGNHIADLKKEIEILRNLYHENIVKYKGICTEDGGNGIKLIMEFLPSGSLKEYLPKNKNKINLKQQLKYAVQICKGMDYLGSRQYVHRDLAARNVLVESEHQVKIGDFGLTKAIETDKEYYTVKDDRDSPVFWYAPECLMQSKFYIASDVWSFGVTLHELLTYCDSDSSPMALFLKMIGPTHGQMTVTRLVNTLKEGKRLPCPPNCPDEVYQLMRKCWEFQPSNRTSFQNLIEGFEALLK

inhibition [5]: Active
Activity (Mitochondrial membrane): 53.2%
inhibition [10]: Active; Showed Mild Inhibition Activity
inhibition [11]: Active; Showed Mild Inhibition Activity
inhibition [26]: Active; Showed Mild Inhibition Activity
Compound: CC1=C(O)C(=O)C=C2C1=CC=C1[C@@]2(C)CC[C@@]2(C)[C@@H]3C[C@](C)(C(=O)N4CCNCC4)CC[C@]3(C)CC[C@]12C
Activity (SK-OV-3 [1]): Active
viability at 0.2 µM (A2780 [2]): 89.3%
Activity (SK-OV-3 [3]): 37.2%
Activity (A2780 [4]): 69.9%
Activity (SK-OV-3 [6]): 6.2%
Activity (A2780 [7]): 64.7%
Activity (SK-OV-3 [8]): Active
Activity (SK-OV-3 [9]): Active
Activity (A2780 [12]): 3.83%
inhibition (SK-OV-3 [13]): Dose-dependent-effect
Activity (SK-OV-3 [14]): 1.4%
Activity (SK-OV-3 [15]): 64.53%
Activity (SK-OV-3 [16]): 29.8%
Activity (A2780 [17]): 15%
inhibition (A2780 [18]): Dose-dependent-effect
Activity [19]: Non-toxic
viability at 0.4 µM (SK-OV-3 [20]): 64.4%
Activity (A2780 [21]): 8.6%
Activity (A2780 [22]): 53.7%
inhibition (SK-OV-3 [23]): Active
Activity (SK-OV-3 [24]): 59.2%
Activity (SK-OV-3 [25]): Active
inhibition (SK-OV-3 [27]): Dose-dependent-effect
viability at 0.2 µM (SK-OV-3 [28]): 74.2%
inhibition (A2780 [29]): Dose-dependent-effect
inhibition (SK-OV-3 [30]): Active
Activity (A2780 [31]): 1.7%
